In brackets after ≈: the same amount, converted by molar mass.
What was measured:
[1] = system: souches de S. aureus issues de prélèvements de plaies du pied infectées chez des patients diabétiques; assay: Antibiotic susceptibility test (MIC, 96-well microplate, OD 600 nm) in Mueller-Hinton medium (MH); type: cell-based; parameters: key to Classification (S) ou (R) en MH: S (sensible); R (résistante); conditions: for MIC: Staphylococcus aureus, read-out: CMI en milieu MH
Source text: (§1) • La Figure 1 représente des courbes de croissance de bactéries en fonction du milieu de culture. Sur cette figure, les ordonnées correspondent au logarithme d'unités formant colonie par millilitre de milieu de culture (Log UFC/ml) et les abscisses, au temps en heure (H). La Figure 1A représente les courbes correspondant à la croissance de 2 souches de S. aureus, Newman (gauche) et SAC1 (droite), dans le milieu BHI (courbe avec indicateurs ronds) et un exemple de milieu selon l'invention (MP) (courbe avec indicateurs carrés). La Figure 1B représente les courbes correspondant à la croissance de 2 souches de P. aeruginosa, PAO1 (gauche) et PAC1 (droite), dans le milieu BHI (courbe avec indicateurs ronds) et un exemple de milieu selon l'invention (MP) (courbe avec indicateurs carrés). La Figure 1C représente les courbes correspondant à la croissance de 2 souches cliniques S. aureus SAC1 et P. aeruginosa PAC1, en coculture dans le milieu BHI (P. aeruginosa BHI ou S. aureus BHI) et un exemple de milieu selon l'invention (MP) (P. aeruginosa MP ou S. aureus MP). La mesure de différence significative, réalisée par le test de Student, entre les valeurs d'UFC/mL est exprimée, soit par (***) qui correspond à une p-value <0,001, soit par (**) qui correspond à une p-value <0,01. • La Figure 2 représente les résultats obtenus d'une détermination de l'adhésion et de la formation de biofilm par dénombrement à 24h. Sur cette figure, les ordonnées correspondent au logarithme d'unités formant colonie par millilitre de milieu de culture (Log UFC/ml). La Figure 2A représente un histogramme ou diagramme en bâton du nombre de bactéries dénombrées suite à des cultures séparées de souche S. aureus Newman (Newman), S. aureus SAC1 (SAC 1), P. aeruginosa PAO1 (PAO1) ou P. aeruginosa PAC1 (PAC1), pendant 24H dans un milieu BHI (BHI) (bâtons noirs) ou dans un exemple de milieu selon l'invention (MP) (bâtons gris). La Figure 2B montre sous forme d'histogramme le nombre de bactéries dénombrées suite à des co-cultures des souches de référence S. aureus Newman et P. aeruginosa PAO1 (PAO1/Newman), ainsi que du couple de souches cliniques S. aureus SAC1 et P. aeruginosa PAC1 (PAC 1/SAC1), pendant 24H dans un milieu BHI (BHI) (bâtons noirs) ou dans un exemple de milieu selon l'invention (MP) (bâtons gris). La mesure de différence significative, réalisée par le test de Student, entre les valeurs d'UFC est exprimée, soit par (***) qui correspond à une p-value <0,001, soit par (**) qui correspond à une p-value <0,01. • La Figure 3 représente les résultats obtenus d'une détermination de sensibilité à des antibiotiques de souches cliniques de S. aureus issues d'infections de plaies du pied chez le diabétique. Les données cliniques, anonymisées, nécessaires à l'interprétation des résultats, consistaient en l'antibiothérapie donnée au patient, ainsi que la qualification par les médecins hospitaliers d'un succès ou échec thérapeutique. La définition de succès ou échec thérapeutique est définie comme suit. Le patient commence et suit l'antibiothérapie prescrite et un deuxième prélèvement microbiologique est effectué lors du dernier jour de traitement de la 1ère antibiothérapie (± 2 jours). Ce prélèvement est utilisé pour déterminer la présence/absence du pathogène ciblé par l'antibiothérapie, S. aureus. Si ce prélèvement a montré la persistance d'un S. aureus, l'antibiothérapie est en échec. A l'inverse, en cas d'absence de S. aureus, l'antibiothérapie est associée à un succès thérapeutique. Les antibiogrammes ont été réalisés classiquement sur une durée de 18h ± 2h en accord avec les recommandations de l'EUCAST. Une gamme de l'antibiotique à tester a été réalisée. • La Figure 3A montre sous forme d'histogramme les résultats des CMI déduites d'antibiogrammes sur 11 souches testées en présence d'amoxicilline / clavulanate de potassium (commercialisé par exemple sous le nom d'Augmentin (marque déposée)).

[2] = system: souches de S. aureus issues de prélèvements de plaies du pied infectées chez des patients diabétiques; assay: Antibiotic susceptibility test (MIC, 96-well microplate, OD 600 nm) in wound medium of the invention (MP); type: cell-based; conditions: for MIC: Staphylococcus aureus, read-out: CMI en milieu plaie MP
Source text: as §1

CCC[C@@H]1C[C@@H](C(=O)N[C@@H]([C@H]2O[C@H](SC)[C@H](O)[C@@H](O)[C@H]2O)[C@H](C)Cl)N(C)C1 [clindamycine]
MIC ([1]; souche C01P009): 0.25 µg/mL (≈ 0.588 µM) | MIC ([1]; souche C01P010): 0.25 µg/mL (≈ 0.588 µM) | MIC ([1]; souche C03P003): 0.25 µg/mL (≈ 0.588 µM) | MIC ([1]; souche C03P004): 0.25 µg/mL (≈ 0.588 µM) | MIC ([1]; souche C03P005): 0.25 µg/mL (≈ 0.588 µM) | MIC ([1]; souche C03P009): 0.5 µg/mL (≈ 1.18 µM) | Classification (S) ou (R) en MH ([1]; souche C01P009): (S) | Classification (S) ou (R) en MH ([1]; souche C01P010): (S) | Classification (S) ou (R) en MH ([1]; souche C03P003): (S) | Classification (S) ou (R) en MH ([1]; souche C03P004): (S) | Classification (S) ou (R) en MH ([1]; souche C03P005): (S) | Classification (S) ou (R) en MH ([1]; souche C03P009): (S) | MIC ([2]; souche C01P009): 0.25 µg/mL (≈ 0.588 µM) | MIC ([2]; souche C01P010): 2 µg/mL (≈ 4.71 µM) | MIC ([2]; souche C03P003): 0.25 µg/mL (≈ 0.588 µM) | MIC ([2]; souche C03P004): 0.25 µg/mL (≈ 0.588 µM) | MIC ([2]; souche C03P005): 1 µg/mL (≈ 2.35 µM) | MIC ([2]; souche C03P009): 0.5 µg/mL (≈ 1.18 µM) | Classification (S) ou (R) en MP ([2]; souche C01P009): (S) (valeur de CMI mesurée dans un milieu plaie, exemple de milieu selon l'invention (MP) inférieure ou égale au seuil déterminé et peuvent être classifiées comme sensibles (noté S dans le tableau 5C)) | Classification (S) ou (R) en MP ([2]; souche C01P010): (R) (valeur de CMI mesurée dans un milieu plaie, exemple de milieu selon l'invention (MP), supérieure au seuil et peuvent être classifiées comme résistantes (noté R dans le tableau 5C)) | Classification (S) ou (R) en MP ([2]; souche C03P003): (S) (valeur de CMI mesurée dans un milieu plaie, exemple de milieu selon l'invention (MP) inférieure ou égale au seuil déterminé et peuvent être classifiées comme sensibles (noté S dans le tableau 5C)) | Classification (S) ou (R) en MP ([2]; souche C03P004): (S) (valeur de CMI mesurée dans un milieu plaie, exemple de milieu selon l'invention (MP) inférieure ou égale au seuil déterminé et peuvent être classifiées comme sensibles (noté S dans le tableau 5C)) | Classification (S) ou (R) en MP ([2]; souche C03P005): (R) (valeur de CMI mesurée dans un milieu plaie, exemple de milieu selon l'invention (MP), supérieure au seuil et peuvent être classifiées comme résistantes (noté R dans le tableau 5C)) | Classification (S) ou (R) en MP ([2]; souche C03P009): (S) (valeur de CMI mesurée dans un milieu plaie, exemple de milieu selon l'invention (MP) inférieure ou égale au seuil déterminé et peuvent être classifiées comme sensibles (noté S dans le tableau 5C))

amoxicilline / clavulanate de potassium [amoxicilline/clavulanate de potassium]
CMI en milieu MH ([1]; souche C01P012): 0,25 mg/L / µg/L | Classification (S) ou (R) en MH ([1]; souche C01P012): (S) | CMI en milieu MH ([1]; souche C03P001): 0,25 mg/L / µg/L | Classification (S) ou (R) en MH ([1]; souche C03P001): (S) | CMI en milieu MH ([1]; souche C03P008): 0,5 mg/L / µg/L | Classification (S) ou (R) en MH ([1]; souche C03P008): (S) | CMI en milieu MH ([1]; souche C04P003): 0,25 mg/L / µg/L | Classification (S) ou (R) en MH ([1]; souche C04P003): (S) | CMI en milieu MH ([1]; souche C04P005f): 0,5 mg/L / µg/L | Classification (S) ou (R) en MH ([1]; souche C04P005f): (S) | CMI en milieu MH ([1]; souche C04P005i): 0,5 mg/L / µg/L | Classification (S) ou (R) en MH ([1]; souche C04P005i): (S) | CMI en milieu MH ([1]; souche C04P007): 0,25 mg/L / µg/L | Classification (S) ou (R) en MH ([1]; souche C04P007): (S) | CMI en milieu MH ([1]; souche C06P001f): 0,25 mg/L / µg/L | Classification (S) ou (R) en MH ([1]; souche C06P001f): (S) | CMI en milieu MH ([1]; souche C06P001 i): 0,25 mg/L / µg/L | Classification (S) ou (R) en MH ([1]; souche C06P001 i): (S) | CMI en milieu MH ([1]; souche C06P003f): 0,25 mg/L / µg/L | Classification (S) ou (R) en MH ([1]; souche C06P003f): (S) | CMI en milieu MH ([1]; souche C06P003i): 0,25 mg/L / µg/L | Classification (S) ou (R) en MH ([1]; souche C06P003i): (S) | CMI en milieu plaie MP ([2]; souche C01P012): 0,25 mg/L / µg/L | Classification (S) ou (R) en MP ([2]; souche C01P012): (S) (valeur de CMI mesurés dans l'exemple de milieu selon l'invention (MP), inférieure ou égale au seuil et ont été et peuvent être classifiées comme sensibles (noté S dans le tableau 5A)) | CMI en milieu plaie MP ([2]; souche C03P001): 0,5 mg/L / µg/L | Classification (S) ou (R) en MP ([2]; souche C03P001): (S) (valeur de CMI mesurés dans l'exemple de milieu selon l'invention (MP), inférieure ou égale au seuil et ont été et peuvent être classifiées comme sensibles (noté S dans le tableau 5A)) | CMI en milieu plaie MP ([2]; souche C03P008): 1 mg/L / µg/L | Classification (S) ou (R) en MP ([2]; souche C03P008): (R) (valeur de CMI mesurée dans l'exemple de milieu selon l'invention (MP) supérieure au seuil et peuvent être classifiées comme résistantes (noté R dans le tableau 5A)) | CMI en milieu plaie MP ([2]; souche C04P003): 0,25 mg/L / µg/L | Classification (S) ou (R) en MP ([2]; souche C04P003): (S) (valeur de CMI mesurés dans l'exemple de milieu selon l'invention (MP), inférieure ou égale au seuil et ont été et peuvent être classifiées comme sensibles (noté S dans le tableau 5A)) | CMI en milieu plaie MP ([2]; souche C04P005f): 0,5 mg/L / µg/L | Classification (S) ou (R) en MP ([2]; souche C04P005f): (S) (valeur de CMI mesurés dans l'exemple de milieu selon l'invention (MP), inférieure ou égale au seuil et ont été et peuvent être classifiées comme sensibles (noté S dans le tableau 5A)) | CMI en milieu plaie MP ([2]; souche C04P005i): 0,5 mg/L / µg/L | Classification (S) ou (R) en MP ([2]; souche C04P005i): (S) (valeur de CMI mesurés dans l'exemple de milieu selon l'invention (MP), inférieure ou égale au seuil et ont été et peuvent être classifiées comme sensibles (noté S dans le tableau 5A)) | CMI en milieu plaie MP ([2]; souche C04P007): 1 mg/L / µg/L | Classification (S) ou (R) en MP ([2]; souche C04P007): (R) (valeur de CMI mesurée dans l'exemple de milieu selon l'invention (MP) supérieure au seuil et peuvent être classifiées comme résistantes (noté R dans le tableau 5A)) | CMI en milieu plaie MP ([2]; souche C06P001f): 2 mg/L / µg/L | Classification (S) ou (R) en MP ([2]; souche C06P001f): (R) (valeur de CMI mesurée dans l'exemple de milieu selon l'invention (MP) supérieure au seuil et peuvent être classifiées comme résistantes (noté R dans le tableau 5A)) | CMI en milieu plaie MP ([2]; souche C06P001 i): 4 mg/L / µg/L | Classification (S) ou (R) en MP ([2]; souche C06P001 i): (R) (valeur de CMI mesurée dans l'exemple de milieu selon l'invention (MP) supérieure au seuil et peuvent être classifiées comme résistantes (noté R dans le tableau 5A)) | CMI en milieu plaie MP ([2]; souche C06P003f): 1 mg/L / µg/L | Classification (S) ou (R) en MP ([2]; souche C06P003f): (R) (valeur de CMI mesurée dans l'exemple de milieu selon l'invention (MP) supérieure au seuil et peuvent être classifiées comme résistantes (noté R dans le tableau 5A)) | CMI en milieu plaie MP ([2]; souche C06P003i): 2 mg/L / µg/L | Classification (S) ou (R) en MP ([2]; souche C06P003i): (R) (valeur de CMI mesurée dans l'exemple de milieu selon l'invention (MP) supérieure au seuil et peuvent être classifiées comme résistantes (noté R dans le tableau 5A))

— EP4060021A1, “MIMETIC MICROBIOLOGICAL CULTURE MEDIUM AND USES THEREOF” (BIOFILM PHARMA, priority 2021, dated 2022)
